# Measured values reported in US20210260057A1, “COMPOSITIONS AND METHODS TARGETING GLUTAMINE AND ITS METABOLISM FOR DIAGNOSING AND TREATING CANCER AND THERAPY-ASSOCIATED SIDE EFFECTS” (CEDARS-SINAI MEDICAL CENTER, priority 2018, published 2021).
# Several values for one entry are separate records, joined by “and”; a condition that tells them apart may be missing. Equal values may be shown once.
# Experiments:
# RASAL3 mRNA in CAF = assay: RASAL3 mRNA expression (rtPCR) in CAF; format: cell-based, human; conditions: 5-day treatment; Bic 10^−5 M, Enza 10^−5 M, R1881 10^−9 M, 5-Aza 5 mmol/L
# Procedure: (§1) RNA expression level. All real-time PCR assays were carried out using three technical replicates and three independent cDNA syntheses on a 7500 Real-Time PCR System (Applied Biosystems). Data were normalized using an internal control gene, either GAPDH or β-actin. Relative quantification of expression levels (RQ) was calculated using the ^2-ΔΔCt method.
# RASAL3 promoter = assay: Methylation specific PCR of RASAL3 exon 2 in CAF; format: cell-based, human; conditions: CAF after treatment
# Procedure: (FIG. 13A) Quantitative rtPCR analysis of RASAL3 in NAF and CAF was performed following 5 day treatment with bicalutamide (Bic, 10^−5 M), enzalutamide (Enza, 10^−5 M), R1881 (10^−9 M), or 5-Azacytidine (5-Aza, […]). RASAL3 expression was normalized GAPDH expression. Data represent the mean±SEM. *P<0.05, ***P<0.001, and ****P<0.0001, by two-way ANOVA followed by multiple comparison. Results are the average of at least three independent experiments. (FIG. 13B) MS-PCR of the RASAL3 exon 2 methylation status in CAF after treatment with enzalutamide, R1881, 5-Azacytidine and bicalutamide was performed. The PCR products in the lanes marked “U” indicate unmethylated templates for RASAL3 gene, whereas the products in the lanes marked “M” indicate methylated templates. Data are representative of three independent experiments.
# RASAL3 mRNA in NAF = assay: RASAL3 mRNA expression (rtPCR) in NAF; format: cell-based, human; conditions: 5-day treatment; Bic 10^−5 M, Enza 10^−5 M, R1881 10^−9 M
# Procedure: as §1
# RASAL3 exon 2 = assay: Bisulfite sequencing of RASAL3 exon 2 in CAF; format: cell-based, human; conditions: CAF treated with R1881 for 5 days
# Procedure: Bisulfite Sequencing. Bisulfite sequencing was performed as described previously (Haldar S, Dru C, Mishra R, Tripathi M, Duong F, Angara B, Fernandez A, Arditi M, and Bhowmick N A. Histone deacetylase inhibitors mediate DNA damage repair in ameliorating hemorrhagic cystitis. Sci Rep. 2016; 6(39257). Briefly, genomic DNA was extracted from the NAF and CAF samples and 200 ng of DNA was bisulfite converted by using the EZ DNA Methylation-Gold Kit (Zymo Research, Irvine, Calif.) according to the manufacturer's protocol. Three overlapping primers were used for amplification of Exon 2 region of RASAL3 by ZymoTaq DNA polymerase (Zymo Research) and subsequently cloned into the pCR2.1-TOPO vector (Invitrogen by Life Technologies, Carlsbad, Calif.). The primer sequences used to amplify the three regions were designed by using the Meth-Primer program (www.urogene.org/methprimer/) and are listed in Table 4. Five clones from each sample were sequenced by using Sanger's method.
# [1] = system: prostate cancer (serum PSA); assay: PSA response of PCa patients on androgen targeted therapy; format: in vivo, human; design: PSA on treatment: unit not given beside the values
# From the text: Plasma glutamine level may be prognostic for ADT sensitivity. Considering the striking finding that glutamine can induce ADT resistance, we tested if glutamine concentrations can be associated with ADT sensitivity in prostate cancer patients. We measured blood plasma glutamine concentrations in 28 PCa patients that received ADT (Table 1). Of note, the specific androgen signaling-axis interventions in the patient pool included, androgen receptor antagonists: bicalutamide, enzalutamide, and apalutamide, as well as androgen synthesis inhibitors: leuprolide, goserelin, triptorelin, and abiraterone.
# [2] = system: prostate cancer epithelial cells; assay: ALDH (stem marker) in prostate cancer epithelial cells; format: cell-based; conditions: prostate cancer epithelial cells (FIG. 17A, 17B)
# prostatic fibroblasts = assay: Glutamine in conditioned media of prostatic fibroblasts; format: cell-based; conditions: FIG. 17C
# Procedure: (§2) Measurements of glutamine. Glutamine was measured in blood plasma and conditioned media by using glutamine detection kit (Abcam) following manufacturer protocol. Deproteinization step was performed in plasma samples prior to glutamine detection. The absorbance was measured at 450 nm using a Bio-Rad Benchmark plus microplate spectrophotometer (Bio-Rad Laboratories).
# bone marrow fibroblasts = assay: Glutamine expression by bone marrow fibroblasts; format: cell-based; conditions: FIG. 15E, FIG. 17D
# Procedure: as §2
# [3] = system: CWR22Rv1 and CAF tissue recombinants; assay: Castrate resistant sub-renal capsule xenograft (castration + enzalutamide); conditions: castrated mice treated with enzalutamide alone
# Procedure: Tissue recombination mouse models. Cell recombinants were prepared by mixing 2×10^5 epithelial (CWR22Rv1) cells with 6×10^5 CAFs or stromal cells expressing KRAS^V12 per site in collagen as described before (Banerj ee J, Mishra R, Li X, Jackson R S, 2nd, Sharma A, and Bhowmick N A. A reciprocal role of prostate cancer on stromal DNA damage. Oncogene. 2014; 33(41):4924-31). The mice were either left intact or castrated 1 week after grafting. […] Castrated mice were treated with enzalutamide (5 mg/kg) either alone or in combination with L-glutamic acid Υ-(p-nitroanilide) hydrochloride (GPNA; 10 mg/kg; Sigma-Aldrich) for three weeks. The tumor volumes were measured using digital calipers and calculated using the following formula: length (mm)×width (mm)×width (mm)×0.52. When the mice were sacrificed and tumors were excised and photographed. Formalin-fixed, paraffin-embedded (FFPE) xenograft tumor tissue was sectioned and stained with hematoxylin and eosin (H&E) and staining for chromogranin A, TUNEL, phosphorylated-hi stone H3 and phosphorylated-mTOR.
# [4] = system: human prostate cancer cells (CWR22Rv1); assay: Gene expression in prostate cancer cells (FIG. 15A-D); format: cell-based; conditions: for Bone morphogenic protein (BMP) expression: CWR22Rv1 (FIG. 15A); for TET2 expression: FIG. 15C, 15D
# CWR22Rv1 [5] = assay: CWR22Rv1 proliferation by cell counting in conditioned media; format: cell-based, human; conditions: NAF-CM supplemented with 0.4 mM glutamine, 72 hrs; compared to CAF-CM
# Procedure: (FIG. 3A) Relative mRNA expression levels of CAF-marker genes in WT and Ras^V12 mouse fibroblast determined by quantitative rtPCR and analyzed using 2-way ANOVA (n≤3). (FIG. 3B) EpCAM-positive cancer epithelial was quantitated by FACS of 3D co-cultures of human epithelial (CWR22Rv1) cells and WT or Ras^V12 mouse fibroblasts. Statistical analysis was performed using two-tailed student's t test (n≤3). (FIG. 3C) ATP was measured in CWR22Rv1 after incubation with conditioned media human NAF or CAF or mouse WT or Ras^V12 fibroblast or oligomycin in glutamine free media (n≤3). Statistical analysis was performed using 1-way ANOVA with multiple comparisons. (FIG. 3D) The diagram represents the TCA cycle in CWR22Rv1 cells treated with NAF- or CAF-conditioned media for 72 hours prior to metabolome analysis (n≤3). (FIG. 3E) The metabolome analysis further indicated differential flux to aspartate, oxidized GSH, and GSH-reduced in CWR22Rv1 cells incubated with NAF- or CAF-conditioned media. (FIG. 3F) Glutamine concentrations were measured in the conditioned media from indicated mouse fibroblasts cultured for 72 hours. (FIG. 3D-FIG. 3F) Statistical analysis was performed using two-tailed student's t test (n≤3). (FIG. 3G) CWR22Rv1 proliferation was measured by cell counting following incubation with NAF and CAF conditioned media for 72 hrs in glutamine free media. […]
# CWR22Rv1 [6] = assay: qPCR of neuroendocrine marker genes, CWR22Rv1; format: cell-based, human; conditions: CWR22Rv1, L-glutamine alone vs vehicle; F-test P<0.0001
# Procedure: as §1
# CWR22Rv1 [7] = assay: Glutamine transporter gene expression, CWR22Rv1; format: cell-based, human; conditions: CWR22Rv1, glutamine 2 mM
# Procedure: as §1
# C4-2B cells = assay: qPCR of neuroendocrine marker genes, C4-2B; format: cell-based, human; conditions: L-glutamine 2 mM, P<0.0001
# Procedure: as §1
# C4-2B = assay: Glutamine transporter and glutaminase gene expression, C4-2B; format: cell-based, human; conditions: glutamine 2 mM
# Procedure: as §1
smiles,measurement,setting,value
C[C@]1(O)CC[C@H]2[C@@H]3CCC4=CC(=O)CCC4=C3C=C[C@@]21C [R1881],RASAL3 mRNA expression in CAF,RASAL3 mRNA in CAF,significantly elevated
same,methylation of the RASAL3 promoter (methylation specific PCR),RASAL3 promoter,hypomethylation
same,RASAL3 mRNA expression in NAF,RASAL3 mRNA in NAF,no effect
same,"prevention of CpG methylation of RASAL3 exon 2, over vehicle treated CAF",RASAL3 exon 2,2.6 fold
CNC(=O)c1ccc(N2C(=S)N(c3ccc(C#N)c(C(F)(F)F)c3)C(=O)C2(C)C)cc1F [enzalutamide],RASAL3 mRNA expression in CAF,RASAL3 mRNA in CAF,little effect
same,PSA on treatment,[1]; individual PCa patient on the listed Rx,0.1 and 344.3 and <0.1 and 116.7
same,Outcome,"[1]; individual PCa patient, responsiveness to ADT based on serum PSA",Responsive (2×) and Non- (2×)
same,ALDH (stem marker),[2],upregulates
same,glutamine expression in the conditioned media of prostatic fibroblasts,prostatic fibroblasts,promotes
same,methylation of the RASAL3 promoter (methylation specific PCR),RASAL3 promoter,hypermethylation
same,glutamine expression in bone marrow fibroblasts,bone marrow fibroblasts,promotes
same,RASAL3 mRNA expression in NAF,RASAL3 mRNA in NAF,downregulated
same,tumor growth under ADT,[3],expanded despite ADT
same,Bone morphogenic protein (BMP) expression,[4],upregulated
same,TET2 expression,[4],induces
"NC(=O)CC[C@H](N)C(=O)O [glutamine, L-glutamine]",ALDH (stem marker),[2],upregulates
same,CWR22Rv1 proliferation,CWR22Rv1 [5],restored CWR22Rv1 proliferation
same,expression of neuroendocrine gene panel,CWR22Rv1 [6],upregulated
same,SLC38A1 transporter expression,CWR22Rv1 [7],did not seem to be regulated
same,expression of glutamine importers SLC1A5 and SCL38A2,CWR22Rv1 [7]; time dependent,consistently increased
same,neuroendocrine differentiation (marker gene expression),C4-2B cells,induce neuroendocrine differentiation
same,SLC38A1 transporter expression,C4-2B,did not seem to be regulated
same,expression of glutamine importers SLC1A5 and SCL38A2,C4-2B; time dependent,consistently increased
same,GLS and GLS2 mRNA expression,C4-2B; within 6 hours of treatment,promote
same,Bone morphogenic protein (BMP) expression,[4],upregulated
same,TET2 expression,[4],upregulates
same,osteopotegrin (OPG) and FoxMl expression,[4]; increasing doses of Gln (FIG. 15B),upregulates
